Test results as given in article PMC8216281, “RNA pull-down confocal nanoscanning (RP-CONA) detects quercetin as pri-miR-7/HuR interaction inhibitor that decreases α-synuclein levels” (Nucleic Acids Research, 2021).

Legend:
HuR [1] = target: T1, HuR (Homo sapiens, UniProt Q15717); assay: RP-CONA on-bead confocal assay: inhibition of mCherry-HuR binding to pri-miR-7-1-CTL RNA in cell lysate; confirmed by RNA pull-down/western blot; assay type: biochemical
T1 construct: gene ELAVL1; mCherry-HuR (HuR open reading frame), overexpressed in HuR KO HEK293T lysate
T1 sequence (Q15717 2-326): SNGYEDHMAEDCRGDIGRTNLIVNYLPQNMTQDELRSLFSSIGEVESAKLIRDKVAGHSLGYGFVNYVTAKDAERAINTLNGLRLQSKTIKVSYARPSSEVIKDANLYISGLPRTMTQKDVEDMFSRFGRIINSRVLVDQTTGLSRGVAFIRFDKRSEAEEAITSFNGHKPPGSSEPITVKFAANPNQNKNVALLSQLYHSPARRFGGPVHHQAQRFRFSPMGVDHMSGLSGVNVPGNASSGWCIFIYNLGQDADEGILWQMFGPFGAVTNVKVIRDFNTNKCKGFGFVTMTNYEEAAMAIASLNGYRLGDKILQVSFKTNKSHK

HuR [2] = target: T1, HuR; assay: RP-CONA on-bead confocal assay: inhibition of mCherry-HuR binding to pri-miR-7-1-CTL RNA in cell lysate; confirmed by RNA pull-down/western blot and RIP in cells; assay type: biochemical

Question: O=c1cc(-c2ccc(O)c(O)c2)oc2cc(O)cc(O)c12 [luteolin] was tested. Which IC50 (HuR [1]) did it give?
Answer: 2030 ± 250 nM

Question: With O=c1c(O)c(-c2ccc(O)c(O)c2)oc2cc(O)cc(O)c12 [quercetin] as the compound, how does the IC50 (HuR [2]) read?
Answer: 2150 ± 160 nM
